By EC50 is commonly meant the concentration at which the effect is half-maximal. One may read the AC50 as the concentration giving half of the maximal activity seen.

The structures appear in SMILES notation. Activity calls are given as the source filed them. A value given as a limit tells only on which side of the number the result lay.

The nature of assay [1]: luciferase reporter signal suppression in cells – H4 neuroglioma cells, luminescence, dose response (AID 1990). In kind it is functional, cell-based. (Reporter assays use an easily measured gene product as a stand-in for the process of interest.)
Assay [2] is described as follows: Luminescence Cell-Based Dose Response HTS to Identify Inhibitors of 5'UTR Stem-Loop Driven Prion Protein mRNA Translation in H4 Neuroglioblastoma Cells. [Related pubchem assays: 1827 (Project Summary), 1813 (Primary HTS)]. It is filed as functional.
The nature of assay [3]: alpha-synuclein stem-loop luciferase translation blockers – H4 neuroglioma cells, luminescence, confirmation (AID 1988). In kind it is functional, cell-based.
In assay [4] the target is T1, Aryl hydrocarbon receptor (Homo sapiens, UniProt P35869).
T1 sequence (P35869 whole entry): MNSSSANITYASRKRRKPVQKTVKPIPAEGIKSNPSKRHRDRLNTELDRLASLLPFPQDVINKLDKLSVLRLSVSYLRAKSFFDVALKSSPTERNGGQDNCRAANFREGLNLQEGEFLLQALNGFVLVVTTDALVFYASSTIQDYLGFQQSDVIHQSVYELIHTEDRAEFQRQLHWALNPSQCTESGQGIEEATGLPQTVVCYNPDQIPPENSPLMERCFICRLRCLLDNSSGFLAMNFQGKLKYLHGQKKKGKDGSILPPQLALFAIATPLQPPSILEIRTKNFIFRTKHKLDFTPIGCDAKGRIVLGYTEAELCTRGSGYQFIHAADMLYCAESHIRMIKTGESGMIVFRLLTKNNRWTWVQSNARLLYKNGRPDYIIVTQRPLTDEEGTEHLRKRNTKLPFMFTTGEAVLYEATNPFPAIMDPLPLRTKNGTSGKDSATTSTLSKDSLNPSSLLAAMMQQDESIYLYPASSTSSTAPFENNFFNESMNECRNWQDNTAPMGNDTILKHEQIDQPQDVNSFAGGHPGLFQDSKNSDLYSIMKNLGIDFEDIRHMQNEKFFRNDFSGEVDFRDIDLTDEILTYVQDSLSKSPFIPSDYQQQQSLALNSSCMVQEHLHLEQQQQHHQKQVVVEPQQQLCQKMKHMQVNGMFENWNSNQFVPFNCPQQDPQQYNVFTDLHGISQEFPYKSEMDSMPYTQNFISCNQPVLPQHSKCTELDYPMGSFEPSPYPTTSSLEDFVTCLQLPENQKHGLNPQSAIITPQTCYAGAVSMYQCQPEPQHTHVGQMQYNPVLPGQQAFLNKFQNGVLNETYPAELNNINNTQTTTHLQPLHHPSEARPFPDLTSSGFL
Put plainly: Luminescence-based cell-based high throughput dose response assay for activators of the Aryl Hydrocarbon Receptor (AHR). [Related pubchem assays: 2796 (Primary screen (AHR activators in singlicate)), 2845 (Confirmation screen (AHR activators in triplicate)), 434939 (Counterscreen (PXR activators in triplicate)), 2804 (Summary (AHR activators))]. In kind it is ADME. A general note: The purpose of a counterscreen is to sort out artefacts and off-target activity.

Assay [5] deals with Glycogen synthase kinase-3 alpha (Homo sapiens, UniProt P49840). Description: Inhibition of Human GSK-3 alpha Activity Measured in Biochemical System Using Microfluidics - 2063-06_Inhibitor_Dose_DryPowder_Activity_Set2. [Related pubchem assays (depositor defined):AID2709].
In assay [6] the target is Glycogen synthase kinase-3 beta (Homo sapiens, UniProt P49841). Description: Inhibition of Human GSK-3 beta Activity Measured in Biochemical System Using Microfluidics - 2063-05_Inhibitor_Dose_DryPowder_Activity_Set2. [Related pubchem assays (depositor defined):AID2709].
Assay [7] deals with Cyclin-dependent kinase 5/CDK5 activator 1 (Homo sapiens, UniProt Q00535). Description: human CDK5 activity blockade – biochemical, microfluidic mobility shift, dry powder, selectivity assay for GSK-3 alpha inhibitor project, dose response (AID 588430).
Assay [8] can be described thus: M. tuberculosis growth inhibition in 7H9, dose response, 7H9 media, purified and synthesized samples, set 3 (AID 504646). It is filed as functional.
Assay [9] can be described thus: A High Throughput Confirmatory Assay used to Identify Novel Compounds that Inhibit Mycobacterium Tuberculosis in the absence of Glycerol using Purified and Synthesized Compounds (3). It is filed as functional.
Assay [10] concerns the target T2, Neuropeptides B/W receptor type 1 (Homo sapiens, UniProt P48145).
T2 sequence (P48145 whole entry): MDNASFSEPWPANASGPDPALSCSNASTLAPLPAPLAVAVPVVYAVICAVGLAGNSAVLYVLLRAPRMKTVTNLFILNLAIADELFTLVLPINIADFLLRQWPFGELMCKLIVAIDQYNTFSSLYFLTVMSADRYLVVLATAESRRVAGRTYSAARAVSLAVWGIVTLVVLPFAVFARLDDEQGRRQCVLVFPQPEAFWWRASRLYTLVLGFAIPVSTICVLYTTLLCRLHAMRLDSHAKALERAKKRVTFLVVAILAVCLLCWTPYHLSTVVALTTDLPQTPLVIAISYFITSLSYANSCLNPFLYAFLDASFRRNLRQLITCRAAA
Put plainly: human NPBW1 receptor blockade, IC50 – cell-based, fluorescence, dose response, set 5, late-stage follow-up (AID 588566). In kind it is functional.

Assay [11] has as its target T3, Melanin-concentrating hormone receptor 1 (Homo sapiens, UniProt Q99705). Description: Late-stage fluorescence-based counterscreen for antagonists of the G-protein coupled receptor 7 (GPR7): cell-based dose response assay to identify antagonists of the melanin-concentrating hormone receptor 1 (MCHR1) Set 5. In kind it is functional.
Assay [12] has as its target T3, Melanin-concentrating hormone receptor 1. Description: Late-stage fluorescence-based counterscreen for antagonists of the G-protein coupled receptor 7 (GPR7): cell-based dose response assay to identify antagonists of the melanin-concentrating hormone receptor 1 (MCHR1) Set 6. In kind it is functional.
Assay [13] has as its target T2, Neuropeptides B/W receptor type 1. Description: human NPBW1 receptor blockade, IC50 – cell-based, fluorescence, dose response, set 6, late-stage follow-up (AID 588583). It is filed as functional.
The target of assay [14] is DNA dC->dU-editing enzyme APOBEC-3G (Homo sapiens, UniProt Q9HC16). Put plainly: inhibition of APOBEC3G ssDNA deamination – biochemical, fluorescence, single-stranded DNA substrate, SAR follow-up (AID 602136). In kind it is functional. The settings on record: read-out: IC50_Mean.
The target of assay [15] is DNA dC->dU-editing enzyme APOBEC-3A (Homo sapiens, UniProt P31941). Description: SAR analysis of small molecule inhibitors of APOBEC3A DNA Deaminase via a fluorescence-based single-stranded DNA deaminase assay. In kind it is functional. The following applies: read-out: IC50_Mean.
Assay [16] has as its target T4, High affinity choline transporter 1 (Homo sapiens, UniProt Q9GZV3).
T4 sequence (Q9GZV3 whole entry): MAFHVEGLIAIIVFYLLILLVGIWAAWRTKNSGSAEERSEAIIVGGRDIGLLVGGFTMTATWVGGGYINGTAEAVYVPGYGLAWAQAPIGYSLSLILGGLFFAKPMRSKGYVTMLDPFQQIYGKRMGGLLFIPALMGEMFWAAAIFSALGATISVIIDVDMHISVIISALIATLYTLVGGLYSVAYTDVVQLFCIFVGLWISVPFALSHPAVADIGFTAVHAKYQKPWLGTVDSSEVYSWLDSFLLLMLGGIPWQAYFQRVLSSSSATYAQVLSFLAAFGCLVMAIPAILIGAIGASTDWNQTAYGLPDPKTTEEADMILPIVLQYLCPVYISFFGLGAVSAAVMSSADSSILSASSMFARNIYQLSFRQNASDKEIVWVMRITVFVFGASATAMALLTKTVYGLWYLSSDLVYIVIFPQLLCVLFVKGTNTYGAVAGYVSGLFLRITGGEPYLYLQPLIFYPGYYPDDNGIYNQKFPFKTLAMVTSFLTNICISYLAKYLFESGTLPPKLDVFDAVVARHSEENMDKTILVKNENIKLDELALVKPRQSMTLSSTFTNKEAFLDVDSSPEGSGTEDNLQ
Put plainly: human choline transporter blockers, potency – cell-based, 5-point CRC, membrane potential dye, dose response (AID 504840). It is filed as functional.

The target in assay [17] is T4, High affinity choline transporter 1. Put plainly: human choline transporter blockers, potency – cell-based, 10-point CRC, membrane potential dye, dose response (AID 588401).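 Also: membrane potential dye fluorescence of choline-evoked depolarization via CHT.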 In kind it is functional.

T3 sequence (Q99705 whole entry): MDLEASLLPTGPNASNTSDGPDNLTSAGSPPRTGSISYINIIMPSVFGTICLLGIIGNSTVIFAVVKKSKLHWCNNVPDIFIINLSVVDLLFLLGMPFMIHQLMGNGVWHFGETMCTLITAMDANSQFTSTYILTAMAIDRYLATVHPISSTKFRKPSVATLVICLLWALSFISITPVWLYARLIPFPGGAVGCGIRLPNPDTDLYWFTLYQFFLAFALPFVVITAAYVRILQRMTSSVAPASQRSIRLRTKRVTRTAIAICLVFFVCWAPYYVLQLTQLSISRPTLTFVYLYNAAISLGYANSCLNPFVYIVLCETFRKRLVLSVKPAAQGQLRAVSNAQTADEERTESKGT
Sequence of Cyclin-dependent kinase 5/CDK5 activator 1 (Q00535 whole entry): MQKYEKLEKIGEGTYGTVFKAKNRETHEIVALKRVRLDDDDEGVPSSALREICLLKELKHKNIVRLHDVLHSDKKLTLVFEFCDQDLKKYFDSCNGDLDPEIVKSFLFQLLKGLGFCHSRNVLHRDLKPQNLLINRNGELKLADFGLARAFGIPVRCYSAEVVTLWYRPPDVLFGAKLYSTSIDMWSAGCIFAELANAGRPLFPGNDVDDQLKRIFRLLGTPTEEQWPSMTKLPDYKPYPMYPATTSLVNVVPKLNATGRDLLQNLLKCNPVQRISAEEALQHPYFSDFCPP
Sequence of Cyclin-dependent kinase 5/CDK5 activator 1 (Q15078 whole entry, further chain): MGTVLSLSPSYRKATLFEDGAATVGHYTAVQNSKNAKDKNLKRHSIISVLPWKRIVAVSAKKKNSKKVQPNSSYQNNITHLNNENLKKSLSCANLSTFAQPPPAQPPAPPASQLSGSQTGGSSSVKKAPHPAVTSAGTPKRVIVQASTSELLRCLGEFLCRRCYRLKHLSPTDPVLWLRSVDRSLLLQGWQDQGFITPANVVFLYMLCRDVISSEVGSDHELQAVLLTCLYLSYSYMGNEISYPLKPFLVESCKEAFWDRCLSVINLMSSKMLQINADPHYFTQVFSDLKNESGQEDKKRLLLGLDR
Sequence of Glycogen synthase kinase-3 alpha (P49840 whole entry): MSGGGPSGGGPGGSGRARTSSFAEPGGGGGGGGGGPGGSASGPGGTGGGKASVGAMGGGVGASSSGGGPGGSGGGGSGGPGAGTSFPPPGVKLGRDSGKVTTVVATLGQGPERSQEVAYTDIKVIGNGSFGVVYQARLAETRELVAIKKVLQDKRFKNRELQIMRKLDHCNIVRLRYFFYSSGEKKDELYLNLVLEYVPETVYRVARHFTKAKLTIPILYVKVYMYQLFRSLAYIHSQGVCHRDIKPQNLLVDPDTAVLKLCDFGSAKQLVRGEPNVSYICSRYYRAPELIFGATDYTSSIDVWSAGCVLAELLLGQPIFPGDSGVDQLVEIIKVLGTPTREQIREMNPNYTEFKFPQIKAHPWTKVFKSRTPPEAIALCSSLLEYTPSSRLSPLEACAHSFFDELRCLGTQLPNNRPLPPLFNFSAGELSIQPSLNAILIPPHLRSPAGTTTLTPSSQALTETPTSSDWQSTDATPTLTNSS
Sequence of DNA dC->dU-editing enzyme APOBEC-3G (Q9HC16 whole entry): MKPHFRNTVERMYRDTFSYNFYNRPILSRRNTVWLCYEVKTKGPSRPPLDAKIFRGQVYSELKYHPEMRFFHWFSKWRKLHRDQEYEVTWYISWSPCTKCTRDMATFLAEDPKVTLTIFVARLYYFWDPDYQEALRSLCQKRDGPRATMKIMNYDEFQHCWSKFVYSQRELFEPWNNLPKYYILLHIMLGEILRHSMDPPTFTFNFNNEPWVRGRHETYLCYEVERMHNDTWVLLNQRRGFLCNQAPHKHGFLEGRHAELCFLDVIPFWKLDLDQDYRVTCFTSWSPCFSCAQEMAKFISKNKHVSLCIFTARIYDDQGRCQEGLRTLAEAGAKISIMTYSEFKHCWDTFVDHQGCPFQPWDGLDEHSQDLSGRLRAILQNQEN
Sequence of DNA dC->dU-editing enzyme APOBEC-3A (P31941 whole entry): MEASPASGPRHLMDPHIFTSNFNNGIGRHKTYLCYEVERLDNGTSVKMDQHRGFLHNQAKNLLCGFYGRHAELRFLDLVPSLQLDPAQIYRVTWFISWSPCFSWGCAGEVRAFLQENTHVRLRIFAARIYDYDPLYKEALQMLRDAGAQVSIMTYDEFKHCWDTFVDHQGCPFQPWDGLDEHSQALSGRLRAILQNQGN
Sequence of Glycogen synthase kinase-3 beta (P49841 whole entry): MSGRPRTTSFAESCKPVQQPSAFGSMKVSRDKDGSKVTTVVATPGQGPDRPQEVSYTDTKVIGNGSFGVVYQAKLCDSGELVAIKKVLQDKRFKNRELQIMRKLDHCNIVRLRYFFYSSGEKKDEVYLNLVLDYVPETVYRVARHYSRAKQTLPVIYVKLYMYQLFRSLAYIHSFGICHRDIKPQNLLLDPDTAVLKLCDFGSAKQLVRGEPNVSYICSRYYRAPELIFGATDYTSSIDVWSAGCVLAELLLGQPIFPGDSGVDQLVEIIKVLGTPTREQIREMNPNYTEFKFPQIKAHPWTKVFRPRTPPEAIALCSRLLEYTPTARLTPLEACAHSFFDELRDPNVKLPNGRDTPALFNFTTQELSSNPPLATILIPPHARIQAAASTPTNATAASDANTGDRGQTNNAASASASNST

Turning to `COc1ccccc1Nc1nc(NCCO)nc(N)c1[N+](=O)[O-]`, the 50% effective concentration (EC50) in assay [1] was 10.9 µM (active); in assay [2], 0.118 µM (active); in [3], 11.3 µM (active); in assay [4] it was 1.2 µM (active). Further, the concentration at half-maximal activity (AC50) in [5] is 0.276 µM (active); in assay [6], 0.134 µM (active); in assay [7], 6.14 µM (active).
Regarding `O=C(c1ccc(CNc2c(N3CCCC3)c(=O)c2=O)cc1)N1CCN(C2CCCCC2)CC1`, the IC50 in [8] and in [9] was > 25 µM (active) throughout.
In the case of `COc1ccc(Oc2c(Cl)cnn(Cc3ccc4c(c3)C(=O)c3ccccc3C4=O)c2=O)cc1`, the IC50 in assay [10] and in assay [11] was > 20 µM (inactive) in each case.
In the case of `Cc1ccc(C)c(C(C#N)c2c(Cl)cnn(Cc3cccc4ccccc34)c2=O)c1` (configuration not stated), the IC50 in assay [12] and in [13] was 3.14 µM (active) each time.
As to `COc1ccc2c(Cl)c(-c3nnc4n3CCC4)sc2c1`, the IC50 in assay [14] and in assay [15] was > 99 µM (inactive) throughout.
For `C=CCc1ccc(O)c(-c2cc(CC=C)ccc2O)c1` [MAGNOLOL], the IC50 in assay [16] is 2.89 µM (active); in [17], 1.7 µM (active).

The values above are taken from ChEMBL document CHEMBL1201862, “PubChem BioAssay data set” (2004).
